# Measured values: patent US10947252B2, “Inhibitors of KEAP1-Nrf2 protein-protein interaction” (Janssen Pharmaceutica NV, priority 2018, dated 2021)
# What was measured:
# [1] = biological target: Kelch domain of human KEAP1 (321-624 aa) (Homo sapiens (Human), UniProt Q14145); assay: KEAP1 KELCH ThermoFluor binding assay; conditions: KEAP Kelch […], 1,8-ANS, pH 7.0, average of results obtained, read-out: Tf Kd;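 note: Ligand-induced melting temperature shift of E. coli-expressed KEAP1 Kelch protein, Kd estimated from concentration-response curves of ΔTm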
# [2] = test system: Glo-Response ARE-luc2P HEK293 cell line; assay: ARE luciferase reporter cell-based assay; conditions: average of results obtained;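 note: luciferase signal tracks Nrf2 activation of the ARE once compounds disrupt KEAP1-Nrf2 binding, read with One-Glo reagent, DMSO serving as low control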
# Sequence of Kelch domain of human KEAP1 (321-624 aa) (Q14145 321-624): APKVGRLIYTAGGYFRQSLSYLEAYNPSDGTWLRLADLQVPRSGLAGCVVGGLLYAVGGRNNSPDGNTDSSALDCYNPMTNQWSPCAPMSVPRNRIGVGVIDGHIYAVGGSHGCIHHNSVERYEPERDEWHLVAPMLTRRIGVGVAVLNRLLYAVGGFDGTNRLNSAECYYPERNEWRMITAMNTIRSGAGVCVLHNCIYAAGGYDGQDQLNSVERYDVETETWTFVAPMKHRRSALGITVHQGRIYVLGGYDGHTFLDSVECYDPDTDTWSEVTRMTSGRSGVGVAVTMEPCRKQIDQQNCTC
Compound,Kd [1] [nM],"EC50 ([2]; Homo sapiens, HEK293, 24 h) [nM]",EC50 ([2]; 24 hours) [nM]
"Cc1ccc(C(CC(=O)O)c2ccn3c(C(F)F)nnc3c2C)cc1CN1CC2(CCOCC2)Oc2ncc(F)cc2S1(=O)=O (centres unmarked) [Example 532, 3-(3-(Difluoromethyl)-8-methyl-[1,2,4]triazolo[4,3-a]pyridin-7-yl)-3-(3-((8′-fluoro-1′,1′-dioxido-2,3,5,6-tetrahydrospiro[pyran-4,4′-pyrido[2,3-b][1,4,5]oxathiazepin]-2′(3′H)-yl)methyl)-4-methylphenyl)propanoic Acid]",< 1,41.7,
"Cc1cnc2c(c1)S(=O)(=O)N(Cc1cc(C(CC(=O)O)c3ccn4c(C(F)F)nnc4c3C)ccc1C)CC1(CC1)O2 (centres unmarked) [Example 535, 3-(3-(Difluoromethyl)-8-methyl-[1,2,4]triazolo[4,3-a]pyridin-7-yl)-3-(4-methyl-3-((8′-methyl-1′,1′-dioxidospiro[cyclopropane-1,4′-pyrido[2,3-b][1,4,5]oxathiazepin]-2′(3′H)-yl)methyl)phenyl)propanoic Acid]",< 1,146,
"Cc1ccc(C(CC(=O)O)c2ccn3c(C(F)F)nnc3c2C)cc1CN1CC2(CC2)Oc2ncc(C(N)=O)cc2S1(=O)=O (centres unmarked) [Example 551, 3-(3-((8′-Carbamoyl-1′,1′-dioxidospiro[cyclopropane-1,4′-pyrido[2,3-b][1,4,5]oxathiazepin]-2′(3′H)-yl)methyl)-4-methylphenyl)-3-(3-(difluoromethyl)-8-methyl-[1,2,4]triazolo[4,3-a]pyridin-7-yl)propanoic Acid]",453,> 20000,
"(*S)-3-(3-((7′-(3-((2-(2-aminoethoxy)ethyl)amino)-3-oxopropyl)-1′,1′-dioxido-2,3,5,6-tetrahydrospiro[pyran-4,4′-pyrido[2,3-b][1,4,5]oxathiazepin]-2′(3′H)-yl)methyl)-4-methylphenyl)-2,2-dimethyl-3-(8-methyl-3-(trifluoromethyl)-[1,2,4]triazolo[4,3-a]pyridin-7-yl)propanoic Acid [Example 345]",> 10000,,> 20
